In the NIST ThermoML archive (doi:10.1016/j.jct.2011.02.002):

Test: molar heat capacity at constant pressure
Settings: 101.33 kPa, Crystal, Thermal relaxation technique

[Hf+4].[O-2].[O-2] [hafnium(IV) oxide]
Settings	molar heat capacity at constant pressure [J/K/mol]
1.92 K	0.0006
2 K	0.00065
2.04 K	0.0007
2.19 K	0.0009
2.48 K	0.0011
2.8 K	0.0015
3.09 K	0.002
3.4 K	0.0027
3.77 K	0.0037
4.17 K	0.0048
4.63 K	0.0065
5 K	0.00802
5.17 K	0.0091
5.74 K	0.0118
6.4 K	0.0162
7.11 K	0.022
7.9 K	0.0304
8.79 K	0.0411
9.77 K	0.0569
10 K	0.061
10.87 K	0.0795
12.08 K	0.1132
13.43 K	0.1598
14.85 K	0.2256
16.63 K	0.3276
18.43 K	0.4834
20 K	0.63
20.37 K	0.6725
22.69 K	0.967
25.26 K	1.369
28.1 K	1.905
30 K	2.3
31.26 K	2.569
34.79 K	3.429
38.68 K	4.469
40 K	4.82
43 K	5.684
47.81 K	7.049
50 K	7.72
53.14 K	8.65
59.07 K	10.45
65.65 K	12.39
72.95 K	14.5
81.06 K	16.95
90.05 K	19.69
100 K	22.26
100.01 K	22.35
110.26 K	25.03
120.29 K	27.43
130.3 K	29.98
140.32 K	32.44
150 K	34.61
150.53 K	34.59
160.66 K	36.82
170.61 K	38.83
180.78 K	40.81
190.96 K	42.62
200 K	44.22
201.26 K	44.45
211.45 K	46.16
221.7 K	48.01
231.89 K	49.47
242.02 K	50.89
250 K	51.9
252.09 K	52.39
262.17 K	53.45
272.31 K	54.56
273.15 K	54.95
282.4 K	55.7
292.46 K	56.89
298.15 K	57.73
302.51 K	58.63
